Key:
patients with cGVHD = assay: Example 2: safety, adverse events, relative dose intensity; assay type: in vivo; conditions: for Cough / Diarrhea / Dyspnea / Fatigue / Headache / Muscle spasms / Nausea / Peripheral edema / Upper respiratory tract infection / Vomiting: All grades; for Hyperglycemia / Hypertension / Pneumonia: Grade ≥ 3; for ALT increased / AST increased / Bilirubin conjugated increased / Blood alkaline phosphatase increased / GGT increased / Hypoalbuminemia / LFT increased / Transaminases increased: Liver-related AE
Protocol: All responses were assessed by the study site investigators.

BCRP = biological target: T1, BCRP (Homo sapiens, UniProt Q9UNQ0); assay: transporter inhibition in vitro; assay type: in vitro ADME; conditions: at clinically relevant concentrations
T1 sequence (Q9UNQ0 1-655): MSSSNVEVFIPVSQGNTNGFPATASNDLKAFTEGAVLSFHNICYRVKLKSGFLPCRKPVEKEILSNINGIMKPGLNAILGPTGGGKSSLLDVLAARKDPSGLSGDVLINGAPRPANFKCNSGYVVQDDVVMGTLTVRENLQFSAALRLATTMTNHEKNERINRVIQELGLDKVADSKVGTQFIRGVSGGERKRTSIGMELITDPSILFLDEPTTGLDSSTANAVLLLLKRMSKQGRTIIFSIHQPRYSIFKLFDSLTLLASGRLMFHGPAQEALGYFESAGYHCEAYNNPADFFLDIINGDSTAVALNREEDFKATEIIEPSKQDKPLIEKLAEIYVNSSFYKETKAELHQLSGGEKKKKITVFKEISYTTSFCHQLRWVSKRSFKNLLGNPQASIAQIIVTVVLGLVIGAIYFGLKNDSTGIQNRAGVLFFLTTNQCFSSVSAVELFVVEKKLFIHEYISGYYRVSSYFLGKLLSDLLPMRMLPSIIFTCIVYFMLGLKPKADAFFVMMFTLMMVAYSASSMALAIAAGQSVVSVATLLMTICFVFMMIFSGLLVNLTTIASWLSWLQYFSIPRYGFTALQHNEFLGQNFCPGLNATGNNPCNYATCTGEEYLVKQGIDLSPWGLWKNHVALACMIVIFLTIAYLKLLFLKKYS

UGT1A9 = biological target: T2, UGT1A9 (Homo sapiens, UniProt O60656); assay: enzyme inhibition in vitro; assay type: in vitro ADME
T2 sequence (O60656 26-530): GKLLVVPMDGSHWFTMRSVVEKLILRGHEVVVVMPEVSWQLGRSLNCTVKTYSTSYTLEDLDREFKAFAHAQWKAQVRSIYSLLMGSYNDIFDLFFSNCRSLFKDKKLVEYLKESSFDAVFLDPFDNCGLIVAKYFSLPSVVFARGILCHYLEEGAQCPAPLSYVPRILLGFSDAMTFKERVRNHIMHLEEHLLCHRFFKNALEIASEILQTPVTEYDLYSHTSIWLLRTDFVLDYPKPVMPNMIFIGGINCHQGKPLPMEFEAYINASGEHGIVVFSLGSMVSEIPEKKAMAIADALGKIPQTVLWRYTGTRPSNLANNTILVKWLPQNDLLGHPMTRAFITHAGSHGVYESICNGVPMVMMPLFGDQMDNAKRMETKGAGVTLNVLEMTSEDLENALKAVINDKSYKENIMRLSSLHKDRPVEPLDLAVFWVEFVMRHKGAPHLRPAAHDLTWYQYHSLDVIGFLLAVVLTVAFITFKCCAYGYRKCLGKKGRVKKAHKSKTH

CC(C)NC(=O)COc1cccc(-c2nc(Nc3ccc4[nH]ncc4c3)c3ccccc3n2)c1 [Belumosudil, 2-{3-[4-(1H-indazol-5-ylamino)-2-quinazolinyl]phenoxy}-N-(propan-2-yl) acetamide]
Any AE (patients with cGVHD; 200 mg daily (n = 66)): 65 (99) n (%) | Deaths (patients with cGVHD; 200 mg daily (n = 66)): 8 (12) n (%) | Drug-related AEs (patients with cGVHD; 200 mg daily (n = 66)): 49 (74) n (%) | Drug-related SAEs (patients with cGVHD; 200 mg daily (n = 66)): 5 (8) n (%) | Grade ≥ 3 AEs (patients with cGVHD; 200 mg daily (n = 66)): 37 (56) n (%) | Liver-related AEs (patients with cGVHD; 200 mg daily (n = 66)): 12 (18) n (%) | SAEs (patients with cGVHD; 200 mg daily (n = 66)): 27 (41) n (%) | Any AE (patients with cGVHD; 200 mg twice daily (n = 66)): 66 (100) n (%) | Deaths (patients with cGVHD; 200 mg twice daily (n = 66)): 6 (9) n (%) | Drug-related AEs (patients with cGVHD; 200 mg twice daily (n = 66)): 40 (61) n (%) | Drug-related SAEs (patients with cGVHD; 200 mg twice daily (n = 66)): 2 (3) n (%) | Grade ≥ 3 AEs (patients with cGVHD; 200 mg twice daily (n = 66)): 34 (52) n (%) | Liver-related AEs (patients with cGVHD; 200 mg twice daily (n = 66)): 19 (29) n (%) | SAEs (patients with cGVHD; 200 mg twice daily (n = 66)): 23 (35) n (%) | Cough (patients with cGVHD; 200 mg daily (n = 66)): 20 (30) n (%) | Diarrhea (patients with cGVHD; 200 mg daily (n = 66)): 23 (35) n (%) | Dyspnea (patients with cGVHD; 200 mg daily (n = 66)): 21 (32) n (%) | Fatigue (patients with cGVHD; 200 mg daily (n = 66)): 30 (46) n (%) | Headache (patients with cGVHD; 200 mg daily (n = 66)): 13 (20) n (%) | Muscle spasms (patients with cGVHD; 200 mg daily (n = 66)): 13 (20) n (%) | Nausea (patients with cGVHD; 200 mg daily (n = 66)): 23 (35) n (%) | Peripheral edema (patients with cGVHD; 200 mg daily (n = 66)): 17 (26) n (%) | Upper respiratory tract infection (patients with cGVHD; 200 mg daily (n = 66)): 17 (26) n (%) | Vomiting (patients with cGVHD; 200 mg daily (n = 66)): 18 (27) n (%) | Cough (patients with cGVHD; 200 mg twice daily (n = 66)): 17 (26) n (%) | Diarrhea (patients with cGVHD; 200 mg twice daily (n = 66)): 21 (32) n (%) | Dyspnea (patients with cGVHD; 200 mg twice daily (n = 66)): 12 (18) n (%) | Fatigue (patients with cGVHD; 200 mg twice daily (n = 66)): 20 (30) n (%) | Headache (patients with cGVHD; 200 mg twice daily (n = 66)): 18 (27) n (%) | Muscle spasms (patients with cGVHD; 200 mg twice daily (n = 66)): 13 (20) n (%) | Nausea (patients with cGVHD; 200 mg twice daily (n = 66)): 18 (27) n (%) | Peripheral edema (patients with cGVHD; 200 mg twice daily (n = 66)): 13 (20) n (%) | Upper respiratory tract infection (patients with cGVHD; 200 mg twice daily (n = 66)): 18 (27) n (%) | Vomiting (patients with cGVHD; 200 mg twice daily (n = 66)): 10 (15) n (%) | Cough (patients with cGVHD; Total (N = 132)): 37 (28) n (%) | Diarrhea (patients with cGVHD; Total (N = 132)): 44 (33) n (%) | Dyspnea (patients with cGVHD; Total (N = 132)): 33 (25) n (%) | Fatigue (patients with cGVHD; Total (N = 132)): 50 (38) n (%) | Headache (patients with cGVHD; Total (N = 132)): 31 (24) n (%) | Muscle spasms (patients with cGVHD; Total (N = 132)): 26 (20) n (%) | Nausea (patients with cGVHD; Total (N = 132)): 41 (31) n (%) | Peripheral edema (patients with cGVHD; Total (N = 132)): 30 (23) n (%) | Upper respiratory tract infection (patients with cGVHD; Total (N = 132)): 35 (27) n (%) | Vomiting (patients with cGVHD; Total (N = 132)): 28 (21) n (%) | SAE pneumonia (patients with cGVHD; Example 2): 7% | deaths from multiorgan failure and infection possibly related to belumosudil (patients with cGVHD; Example 2): 2 | grade 3 or 4 hyperglycemia (patients with cGVHD; Example 2): 5% | grade 3 or 4 hypertension (patients with cGVHD; Example 2): 6% | grade 3 or 4 pneumonia (patients with cGVHD; Example 2): 8% | grade ≥3 anemia (patients with cGVHD; Example 2): 3% | grade ≥3 cytopenias (patients with cGVHD; Example 2): < 4% | grade ≥3 neutropenia (patients with cGVHD; Example 2): 2% | grade ≥3 thrombocytopenia (patients with cGVHD; Example 2): 2% | increased GGT (AE) (patients with cGVHD; Example 2): 12% | median RDI (patients with cGVHD; Example 2): 99.7% | subjects who died during the study (patients with cGVHD; Example 2): Fourteen | subjects who discontinued because of overall AEs (patients with cGVHD; Example 2): 21% | subjects who discontinued because of possible drug-related AEs (patients with cGVHD; Example 2): 12% | subjects who discontinued because of progression of cGVHD (patients with cGVHD; Example 2): 16% | subjects who discontinued because of progression of underlying malignant disease (patients with cGVHD; Example 2): 4% | subjects who received an RDI >95% (patients with cGVHD; Example 2): Eighty-one | subjects with increased liver function tests (LFTs) (patients with cGVHD; Example 2): Twenty-four | subjects with ≥1 SAE (patients with cGVHD; Example 2): Thirty eight | tolerability (patients with cGVHD; Example 2): well tolerated | cases of Epstein-Barr viremia that required treatment (patients with cGVHD; Example 2, unrelated to belumosudil): 1 case | Hyperglycemia (patients with cGVHD; 200 mg daily (n = 66)): 3 (5) n (%) | Hypertension (patients with cGVHD; 200 mg daily (n = 66)): 4 (6) n (%) | Pneumonia (patients with cGVHD; 200 mg daily (n = 66)): 6 (9) n (%) | Hyperglycemia (patients with cGVHD; 200 mg twice daily (n = 66)): 3 (5) n (%) | Hypertension (patients with cGVHD; 200 mg twice daily (n = 66)): 4 (6) n (%) | Pneumonia (patients with cGVHD; 200 mg twice daily (n = 66)): 4 (6) n (%) | Hyperglycemia (patients with cGVHD; Total (N = 132)): 6 (5) n (%) | Hypertension (patients with cGVHD; Total (N = 132)): 8 (6) n (%) | Pneumonia (patients with cGVHD; Total (N = 132)): 10 (8) n (%) | ALT increased (patients with cGVHD; 200 mg daily (n = 66)): 4 (6) n (%) | AST increased (patients with cGVHD; 200 mg daily (n = 66)): 5 (8) n (%) | Bilirubin conjugated increased (patients with cGVHD; 200 mg daily (n = 66)): 1 (2) n (%) | Blood alkaline phosphatase increased (patients with cGVHD; 200 mg daily (n = 66)): 4 (6) n (%) | GGT increased (patients with cGVHD; 200 mg daily (n = 66)): 6 (9) n (%) | Hypoalbuminemia (patients with cGVHD; 200 mg daily (n = 66)): 2 (3) n (%) | LFT increased (patients with cGVHD; 200 mg daily (n = 66)): 1 (2) n (%) | Transaminases increased (patients with cGVHD; 200 mg daily (n = 66)): 1 (2) n (%) | ALT increased (patients with cGVHD; 200 mg twice daily (n = 66)): 7 (11) n (%) | AST increased (patients with cGVHD; 200 mg twice daily (n = 66)): 8 (12) n (%) | Bilirubin conjugated increased (patients with cGVHD; 200 mg twice daily (n = 66)): 0 n (%) | Blood alkaline phosphatase increased (patients with cGVHD; 200 mg twice daily (n = 66)): 6 (9) n (%) | GGT increased (patients with cGVHD; 200 mg twice daily (n = 66)): 10 (15) n (%) | Hypoalbuminemia (patients with cGVHD; 200 mg twice daily (n = 66)): 2 (3) n (%) | LFT increased (patients with cGVHD; 200 mg twice daily (n = 66)): 0 n (%) | Transaminases increased (patients with cGVHD; 200 mg twice daily (n = 66)): 1 (2) n (%) | ALT increased (patients with cGVHD; Total (N = 132)): 11 (8) n (%) | AST increased (patients with cGVHD; Total (N = 132)): 13 (10) n (%) | Bilirubin conjugated increased (patients with cGVHD; Total (N = 132)): 1 (1) n (%) | Blood alkaline phosphatase increased (patients with cGVHD; Total (N = 132)): 10 (8) n (%) | GGT increased (patients with cGVHD; Total (N = 132)): 16 (12) n (%) | Hypoalbuminemia (patients with cGVHD; Total (N = 132)): 4 (3) n (%) | LFT increased (patients with cGVHD; Total (N = 132)): 1 (1) n (%) | Transaminases increased (patients with cGVHD; Total (N = 132)): 2 (2) n (%) | Any AE (patients with cGVHD; Total (N = 132)): 131 (99) n (%) | Drug-related AEs (patients with cGVHD; Total (N = 132)): 89 (67) n (%) | Drug-related SAEs (patients with cGVHD; Total (N = 132)): 7 (5) n (%) | Grade ≥ 3 AEs (patients with cGVHD; Total (N = 132)): 71 (54) n (%) | Liver-related AEs (patients with cGVHD; Total (N = 132)): 31 (24) n (%) | SAEs (patients with cGVHD; Total (N = 132)): 50 (38) n (%) | Deaths (patients with cGVHD; Total (N = 132), six died during LTFU (>28 days after last dose)): 14 (11) n (%) | inhibition of BCRP (BCRP): inhibits | inhibition of UGT1A9 (UGT1A9): inhibitor
